Measurements reported in patent publication US20140179615A1, “Glutathione and Acetaminophen Composition and Preparation Method Thereof” (Hainan Weikang Pharmaceutical (Qianshan) Co., Ltd., priority 2012, published 2014).

Legend:
[1] = tested on: healthy male Kunming mice; experiment: Impact on liver damage in mice: serum AST and ALT activity after gavage; type: in vivo; conditions: gavage 0.5 g/kg, 4 d at intervals of 24 h, mean ± spread, 10 mice per group
Procedure: 1. Materials: healthy male Kunming mice (weight: 20-22 g)
Divide 50 mice into 5 Groups: Control Group, Model Group, Embodiment Group 1, Embodiment Group 2 and Embodiment Group 3; 10 mice for each group. The mice are fed freely two days and fasted 16 h before the experiment. Experimental Treatment: the mice respectively of Control Group, Model Group, Embodiment Group 1, Embodiment Group 2 and Embodiment Group 3 are separately given normal saline, acetaminophen solution (0.5 g/kg), tablets (0.5 g/kg) made in Embodiment 1, oral solution (0.5 g/kg) made in Embodiment 2, and granules made in Embodiment 3 by gavage. The mice are treated continuously 4 d at intervals of 24 h. The mice of control group are given 1% sodium carboxymethylcellulose (0.15 g/kg) by gavage 1 h after last treatment and sacrificed by cervical dislocation after 24 h.
Preparation of Blood Serum: take blood from mouse carotid artery, stand the blood, then make it centrifuged at 3,000 r/min for 15 min to separate out the serum, and put the serum in refrigerator (−20° C.) for storage.
Measuring Indicator and Method: take the prepared serum on Sigma95308 automatic biochemistry analyzer to determine the activity of aspartate transaminase (AST/GOT) and alanine aminotransferase (ALT/GPT).
Impact of Embodiments on Liver Damage

[2] = after taken, cited from earlier work

CC(=O)Nc1ccc(O)cc1 [Model Group, Acetaminophen]
ALT (alanine aminotransferase, ALT/GPT) activity in serum [1]: 87.8 ± 9.5 IU · L^−1 | AST (aspartate transaminase, AST/GOT) activity in serum [1]: 245.6 ± 18.3 IU · L^−1 | Share combined with glucuronide ([2]; liver metabolism): 60% | Share combined with sulfuric acid ([2]; liver metabolism): 30% | Share metabolized by liver cytochrome P450 oxidase system to NAPQI [2]: 4%-5 | Share of acetaminophen metabolized by the liver [2]: 90%
